These molecules were tested against cGMP-specific 3',5'-cyclic phosphodiesterase (Homo sapiens, UniProt O76074) (assay: Phosphodiesterase Inhibition Assay).
Protocol: PDE activity was measured using a modification of the IMAP fluorescence polarization phosphodiesterase assay from Molecular Devices. The assay was modified to use tetramethylrhodamine (TAMRA-) cGMP as substrate. PDE hydrolysis of the fluorescent labeled substrate allows it to bind the IMAP binding reagent, which results in increased FP.

Compound | IC50 [nM]
COC(=O)[C@@H]1Cc2c([nH]c3ccccc23)[C@H](c2ccc(OC)cc2OC)N1 [PDE5 Inhibitor, 4] | 6400
COc1ccc([C@@H]2c3[nH]c4ccccc4c3Cc3c(O)n(C(C)(C)C)c(=O)n32)c(OC)c1 [PDE5 Inhibitor, 12] | 550
CCn1c(O)c2n(c1=O)[C@@H](c1ccc(OC)cc1OC)c1[nH]c3ccccc3c1C2 [PDE5 Inhibitor, 6] | 720
COc1ccc([C@H]2c3[nH]c4ccccc4c3Cc3c(O)n(C(C)(C)C)c(=O)n32)c(OC)c1 [PDE5 Inhibitor, 9] | 2400

Results, then the molecule that gave them:

IC50 [nM] | Compound
560 | C=CCn1c(O)c2n(c1=S)[C@H](c1ccc(OC)cc1OC)c1[nH]c3ccccc3c1C2 [PDE5 Inhibitor, 19]
360 | CCn1c(O)c2n(c1=O)[C@H](c1ccc(OC)cc1OC)c1[nH]c3ccccc3c1C2 [PDE5 Inhibitor, 8]
